According to publication PMC10539501 (Nature Communications, 2023):
Each block holds one molecule with its values, some of them ahead of it. Non-standard residues stand in square brackets, D forms with d. Residues, ends and D or L forms follow the SMILES beside them. NMeL = CN[C@@H](CC(C)C)C(=O)O

Key:
SIF = conditions: up to 72 hours
[1] = PAMPA passive permeability; type: in vitro ADME; conditions: Pe Avg;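 note: passive permeability across an artificial membrane in 96-well pre-coated PAMPA plates, which lack transporters and efflux systems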
Protocol: Encouraged by this, the passive permeability of the analogs was evaluated using an artificial membrane (PAMPA), which measures permeability of compounds in the absence of transporters and efflux systems[32].
96-well BD Corning® pre-coated PAMPA plates were used following the supplier’s protocol, details in Supplementary Information.

pepsin [2] = target: T1, pepsin (Sus scrofa, UniProt P00791); conditions: pH 1.2
T1 sequence (P00791 60-385): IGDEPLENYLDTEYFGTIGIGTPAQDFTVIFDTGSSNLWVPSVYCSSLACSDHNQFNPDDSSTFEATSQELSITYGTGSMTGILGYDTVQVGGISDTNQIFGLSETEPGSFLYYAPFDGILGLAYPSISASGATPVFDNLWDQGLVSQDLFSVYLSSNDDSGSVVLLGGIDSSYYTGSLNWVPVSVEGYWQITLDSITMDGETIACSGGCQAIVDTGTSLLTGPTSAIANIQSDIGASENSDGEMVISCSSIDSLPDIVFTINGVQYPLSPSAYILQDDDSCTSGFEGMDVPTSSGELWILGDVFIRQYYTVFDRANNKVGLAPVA
Protocol: (§1) A stability assessment of the peptides was done in simulated gastric (SGF) and intestinal (SIF) fluids and human liver microsomes. The degradation kinetics of the aliquoted samples at desired time points were analyzed through RP-HPLC.

[3] = rat, in vivo, po, 10 mg/kg
Protocol: (§2) All animals were housed individually in the animal facility at Anthem Biosciences Pvt. Ltd and were acclimatized for 3 days. All animals were fasted overnight before dosing, whereas access to water was provided ad libitum. Peptides were administered orally and via s.c. route and blood samples were collected at different time points through a jugular vein catheter.

in vivo = conditions: male, Wistar, rat
Protocol: as §2

physchem = conditions: pH 7.4
in vitro [4] = conditions: both, human, plasma
Protocol: Blood was freshly drawn from three healthy adults, two male and one person of 26–28 year old. […] The plasma was separated by centrifugation. […] For checking metabolic stability, the required volume of plasma was pre-incubated at 37 °C prior to the experiment for 2 min, followed by spiking with the peptides. At different time points, plasma was aliquoted. The supernatant was separated and used for RP-HPLC quantification. Rapid Equilibrium Dialysis (RED) assay was performed to assess the plasma protein binding of the peptides following the supplier’s protocol.

pepsin [5] = target: T1, pepsin; experiment: in vitro; conditions: simulated gastric fluid, pH 1.2
Protocol: as §1

in vitro [6] = conditions: pig, simulated intestinal fluid
Protocol: We next assessed the stability of the macrocyclic peptides in Simulated Intestinal Fluid (SIF)[42], comprising of pancreatin, which is a mixture of several proteases produced by the exocrine cells of the porcine pancreas.
as §1

in vitro [7] = conditions: human, microsomes
Protocol: as §1

in vitro [8] = conditions: both, human, plasma; remark: listed apart in the source

Protocol for human liver microsomes: as §1

cleaved bond (SIF): Lys2-Thr3, major, 1 hour
Molecule: cyclo(-D-Trp^1-Lys-Thr-Phe-Pro-Phe^6-)

Papp [1]: 9.07 ×10⁻⁶ cm/s
Half lives (SGF) Avg (pepsin [2]): 65.5 min
Half lives (SGF) set1 (pepsin [2]): 52 min
Half lives (human liver microsomes): 28.7
Fold Change of AUClast p.o [3]: 29
AUC(0-t) (in vivo; iv): 212 ng·h/mL
Cmax (in vivo; iv): 435 ng/mL
MRT (in vivo; iv): 0.4 h
Vd (in vivo; iv): 2.3 L/kg
clearance (in vivo; iv): 79.5 mL/min/kg
bioavailability (in vivo; po): 1.2%
AUC(0-t) (in vivo; po, 10 mg/kg): 25.9 ng·h/mL
Cmax (in vivo; po, 10 mg/kg): 13.1 ng/mL
MRT (in vivo; po, 10 mg/kg): 1.3 h
level at 3 h (in vivo; po, 10 mg/kg): 3.2 ng/mL
logD (physchem): 1.46
fraction unbound (in vitro [4]): 0.3
remaining at 2 min (pepsin [5]): 97%
remaining at 10 min (pepsin [5]): 89%
remaining at 20 min (pepsin [5]): 79%
remaining at 0.5 h (pepsin [5]): 67%
remaining at 1 h (pepsin [5]): 57%
remaining at 2 h (pepsin [5]): 26%
remaining at 4 h (pepsin [5]): 16%
remaining at 8 h (pepsin [5]): 8%
remaining at 12 h (pepsin [5]): 3%
half-life (in vitro [6]): 0.933 h
remaining at 10 min (in vitro [6]): 71%
remaining at 0.5 h (in vitro [6]): 63%
remaining at 1 h (in vitro [6]): 47%
remaining at 2 h (in vitro [6]): 27%
remaining at 4 h (in vitro [6]): 16%
remaining at 8 h (in vitro [6]): 2.66%
remaining at 12 h (in vitro [6]): 1%
microsomal CLint (in vitro [7]): 49 µL/min/mg
remaining at 2 min (in vitro [7]): 99%
remaining at 10 min (in vitro [7]): 94%
remaining at 20 min (in vitro [7]): 65%
remaining at 0.5 h (in vitro [7]): 49%
remaining at 0.75 h (in vitro [7]): 27%
remaining at 1 h (in vitro [7]): 13%
half-life (in vitro [8]): 18 h
remaining at 2 h (in vitro [8]): 89%
remaining at 4 h (in vitro [8]): 77%
remaining at 8 h (in vitro [8]): 68%
remaining at 16 h (in vitro [8]): 56%
remaining at 24 h (in vitro [8]): 30%
remaining at 48 h (in vitro [8]): 13%
remaining at 72 h (in vitro [8]): 3.27%
Molecule: CC(C)C[C@@H]1NC(=O)[C@H](Cc2ccc(O)cc2)NC(=O)[C@H]2CCCN2C(=O)[C@H](CC(C)C)NC(=O)[C@H](CC(C)C)N(C)C(=O)[C@@H](CC(C)C)NC1=O [10h] (cyclo(L[dL][NMeL]L[dP]Y))

Molecule: cyclo(D-Trp^1-Lys'-Thr-Phe-Pro-Phe^6)
not cleaved (SIF): prevented the degradation of the macrocycle over 72 h
